# Values quoted from earlier work in patent US20230416754A1, “SINA MOLECULES, METHODS OF PRODUCTION AND USES THEREOF” (PHYZAT BIOPHARMACEUTICALS, LDA, priority 2020, published 2023).
# Like-named read-outs stand apart in the source and are kept apart here.
# System: mice
smiles,measurement,setting,value
"CC(C)(C)NC[C@H](O)COc1nsnc1N1CCOCC1 [Timolol, timolol]",IOP,reserpine-treated animals,did not significantly affect IOP
same,IOP,saline control treated mice,significantly reduced IOP
